Where two headings read alike, the source gives them in different places.
Legend:
[1] = trials 5A and 5B: time course of action and adverse events; format: in vivo, human
[2] = tested on: mice with normal glycemic index; experiment: glucose-induced high blood sugar in mice; format: in vivo
[3] = tested on: rabbits with normal glycemic index; experiment: glucose-induced high blood sugar in rabbits; format: in vivo
[4] = tested on: mice; experiment: blood sugar increase induced by alloxan and streptozotocin in mice; format: in vivo
[5] = tested on: rats; experiment: blood sugar increase induced by alloxan and streptozotocin in rats; format: in vivo
[6] = tested on: animals having a normal level of blood sugar; experiment: blood sugar and insulin in animals having a normal level of blood sugar; format: in vivo
[7] = tested on: type 2 diabetic patients; experiment: trial 5A: Beinaglutide with glipizide in type 2 diabetic patients; format: in vivo, human
[8] = tested on: patients with type 2 diabetes; experiment: trial 5C: Beinaglutide with metformin, multicenter, type 2 diabetes; format: in vivo, human
Source text: Note: Covariance analysis was used for comparison between groups. The dependent variable was the change in body weight relative to baseline, and the covariate was baseline. Body weight change from baseline=post-treatment−baseline. Data from 5C test data.

[9] = pharmacokinetic studies in monkey models; conditions: in vivo, sc
[10] = tested on: diabetes patients; conditions: 0.2 mg TID for 12 weeks; temporary
[11] = tested on: type 2 diabetic patients; experiment: trial 5B: Beinaglutide with metformin in type 2 diabetic patients
[12] = tested on: male diet induced obesity (DIO) mice; conditions: for % of Gastric Remains / Gross Weight of Stomach / Propelling Distance of Carbon Powder / Propelling Rate of Carbon Powder: X ± SE
Method: Five minutes after subcutaneous injection, gavage was conducted using 5% carbon powder suspension (in 2% carboxymethylcellulose solution) at 1.5 ml/100 g body weight. […] The stomach was wiped dry with filter paper and weighed for the gross weight of the stomach. Then the content of the stomach was removed and the stomach was weighed for the net weight. The respective distance from the pyloric sphincter to the front of carbon powder suspension and to the distal end of the large intestine was measured. • propelling distance of carbon powder in the intestine (cm)=distance from pylorus to the proximal end of carbon powder; • mass of carbon powder gavaged=concentration of carbon powder suspension×volume; • propelling rate of carbon powder (%)=propelling distance of carbon powder in the intestine (cm)/entire length of intestine (cm)×100%; • rate of gastric remains (%)=(gross weight of stomach−net weight of stomach)/mass of carbon powder gavaged×100%.
The animals were fasted 29-33 hours before injection, and the animals were not given any water 5-7 hours before injection. Injections were made by subcutaneous administration to the neck, at 0.1 ml/100 g body weight.

[13] = Test group (Beinaglutide+metformin), 84 days (12 weeks) from baseline
[14] = Test group, 248 subjects, 84 days from baseline
[15] = Test group, 84 days from baseline

CC[C@H](C)[C@H](NC(=O)[C@H](Cc1ccccc1)NC(=O)[C@H](CCC(=O)O)NC(=O)[C@H](CCCCN)NC(=O)[C@H](C)NC(=O)[C@H](C)NC(=O)[C@H](CCC(N)=O)NC(=O)CNC(=O)[C@H](CCC(=O)O)NC(=O)[C@H](CC(C)C)NC(=O)[C@H](Cc1ccc(O)cc1)NC(=O)[C@H](CO)NC(=O)[C@H](CO)NC(=O)[C@@H](NC(=O)[C@H](CC(=O)O)NC(=O)[C@H](CO)NC(=O)[C@@H](NC(=O)[C@H](Cc1ccccc1)NC(=O)[C@@H](NC(=O)CNC(=O)[C@H](CCC(=O)O)NC(=O)[C@H](C)NC(=O)[C@@H](N)Cc1cnc[nH]1)[C@@H](C)O)[C@@H](C)O)C(C)C)C(=O)N[C@@H](C)C(=O)N[C@@H](Cc1c[nH]c2ccccc12)C(=O)N[C@@H](CC(C)C)C(=O)N[C@H](C(=O)N[C@@H](CCCCN)C(=O)NCC(=O)N[C@@H](CCCNC(=N)N)C(=O)O)C(C)C [Beinaglutide]
adverse events ([1]; Beinaglutide clinical trials): mild to moderate nausea and vomiting
peak time ([1]; after administration (injection), type 2 diabetic patients): 20 min
half-life ([1]; human, in vivo, other: injection, type 2 diabetic patients, read-out: half-life (duration of action)): ~15 min
effect on glucose-induced high blood sugar [2]: lower glucose-induced high blood sugar
effect on glucose-induced high blood sugar [3]: lower glucose-induced high blood sugar
effect on increase of blood sugar induced by alloxan and streptozotocin [4]: reduce the increase of blood sugar induced by alloxan and streptozotocin
effect on increase of blood sugar induced by alloxan and streptozotocin [5]: reduce the increase of blood sugar induced by alloxan and streptozotocin
effect on blood sugar and blood insulin level [6]: neither decreased blood sugar nor increased blood insulin level
BMI ([7]; 0.1 mg three times a day with glipizide, treatment for 2 weeks, FAS n = 24, before treatment 25.51 ± 2.59): 25.53 ± 2.63 kg/m^2
BMI ([7]; 0.1 mg three times a day with glipizide, treatment for 4 weeks, FAS n = 24, before treatment 25.51 ± 2.59): 25.40 ± 2.64 kg/m^2
BMI ([7]; 0.1 mg three times a day with glipizide, treatment for 8 weeks, FAS n = 24, before treatment 25.51 ± 2.59): 25.25 ± 2.57 kg/m^2
BMI ([7]; 0.1 mg three times a day with glipizide, treatment for 12 weeks, FAS n = 24, before treatment 25.51 ± 2.59): 25.20 ± 2.60 kg/m^2
BMI ([7]; 0.15 mg three times a day with glipizide, treatment for 2 weeks, FAS n = 24, before treatment 25.66 ± 2.64): 25.63 ± 2.57 kg/m^2
BMI ([7]; 0.15 mg three times a day with glipizide, treatment for 4 weeks, FAS n = 24, before treatment 25.66 ± 2.64): 25.45 ± 2.63 kg/m^2
BMI ([7]; 0.15 mg three times a day with glipizide, treatment for 8 weeks, FAS n = 24, before treatment 25.66 ± 2.64): 25.19 ± 2.48 kg/m^2
BMI ([7]; 0.15 mg three times a day with glipizide, treatment for 12 weeks, FAS n = 24, before treatment 25.66 ± 2.64): 25.11 ± 2.60 kg/m^2
BMI ([7]; 0.2 mg three times a day with glipizide, treatment for 2 weeks, FAS n = 23, before treatment 26.71 ± 4.17): 26.44 ± 4.14 kg/m^2
BMI ([7]; 0.2 mg three times a day with glipizide, treatment for 4 weeks, FAS n = 23, before treatment 26.71 ± 4.17): 26.52 ± 3.95 kg/m^2
BMI ([7]; 0.2 mg three times a day with glipizide, treatment for 8 weeks, FAS n = 23, before treatment 26.71 ± 4.17): 26.09 ± 4.04 kg/m^2
BMI ([7]; 0.2 mg three times a day with glipizide, treatment for 12 weeks, FAS n = 23, before treatment 26.71 ± 4.17): 25.92 ± 3.95 kg/m^2
Week 12 BMI ([8]; 0.2 mg three times a day with metformin, Baseline BMI 25.81): 25.09 kg/m^2
BMI Change ([8]; 0.2 mg three times a day with metformin, baseline to week 12, 0 mg group −0.40): −0.72
difference Test-Control group in body weight change, Corrected mean ([8]; 84 days after medication, covariance analysis, P 0.0075): −0.82
change in body weight from baseline, median ([8]; Test group (0.2 mg three times a day + metformin), overweight and obese patients, ITT, 84 days after medication): -2.00 kg
change in body weight from baseline, Mean ± standard deviation ([8]; Test group (0.2 mg three times a day + metformin), overweight and obese patients, ITT, 84 days after medication, 248 subjects): -2.22 ± 2.55 kg
proportion of subjects with Weight loss ≥ 3% [8, 13]: (40.32) %
proportion of subjects with weight loss ≥5% [8, 13]: (20.97) %
number of subjects with Weight loss < 3% [8, 14]: 148
number of subjects with Weight loss < 5% [8, 14]: 196
number of subjects with Weight loss ≥ 3% [8, 14]: 100
number of subjects with Weight loss ≥ 5% [8, 14]: 52
proportion of subjects with Weight loss < 3% [8, 15]: (59.68) %
proportion of subjects with Weight loss < 5% [8, 15]: (79.03) %
half-life [9]: 15 to 30 min
most common side effects [10]: nausea and vomiting
BMI ([11]; 0.1 mg three times a day with metformin, treatment for 2 weeks, FAS n = 73, Day 1 26.24 ± 3.31): 26.12 ± 3.29 kg/m^2
BMI ([11]; 0.1 mg three times a day with metformin, treatment for 4 weeks, FAS n = 73, Day 1 26.24 ± 3.31): 26.02 ± 3.33 kg/m^2
BMI ([11]; 0.1 mg three times a day with metformin, treatment for 8 weeks, FAS n = 73, Day 1 26.24 ± 3.31): 25.84 ± 3.25 kg/m^2
BMI ([11]; 0.1 mg three times a day with metformin, treatment for 12 weeks, FAS n = 73, Day 1 26.24 ± 3.31): 25.76 ± 3.21 kg/m^2
BMI ([11]; 0.2 mg three times a day with metformin, treatment for 2 weeks, FAS n = 70, Day 1 25.14 ± 3.10): 25.03 ± 3.21 kg/m^2
BMI ([11]; 0.2 mg three times a day with metformin, treatment for 4 weeks, FAS n = 70, Day 1 25.14 ± 3.10): 24.85 ± 3.25 kg/m^2
BMI ([11]; 0.2 mg three times a day with metformin, treatment for 8 weeks, FAS n = 70, Day 1 25.14 ± 3.10): 24.54 ± 3.33 kg/m^2
BMI ([11]; 0.2 mg three times a day with metformin, treatment for 12 weeks, FAS n = 70, Day 1 25.14 ± 3.10): 24.43 ± 3.42 kg/m^2
human dose corresponding to effective dose ([12]; from DIO mice 15 μg/kg): 0.12 mg/day
effective dose (inhibition of stomach emptying), as low as ([12]; male DIO mice): 15 µg/kg
% of Gastric Remains ([12]; male DIO mice, 15 μg/kg): 58.92 ± 3.39%
Gross Weight of Stomach ([12]; male DIO mice, 15 μg/kg): 0.49 ± 0.02 g
Propelling Distance of Carbon Powder ([12]; male DIO mice, 15 μg/kg): 20.50 ± 1.89 cm
Propelling Rate of Carbon Powder ([12]; male DIO mice, 15 μg/kg): 47.34 ± 4.63%
% of Gastric Remains ([12]; male DIO mice, 20 μg/kg): 63.46 ± 9.45%
Gross Weight of Stomach ([12]; male DIO mice, 20 μg/kg): 0.50 ± 0.04 g
Propelling Distance of Carbon Powder ([12]; male DIO mice, 20 μg/kg): 14.21 ± 2.59 cm
Propelling Rate of Carbon Powder ([12]; male DIO mice, 20 μg/kg): 34.86 ± 6.72%
% of Gastric Remains ([12]; male DIO mice, 25 μg/kg): 62.69 ± 7.26%
Gross Weight of Stomach ([12]; male DIO mice, 25 μg/kg): 0.53 ± 0.03 g
Propelling Distance of Carbon Powder ([12]; male DIO mice, 25 μg/kg): 15.00 ± 2.45 cm
Propelling Rate of Carbon Powder ([12]; male DIO mice, 25 μg/kg): 35.25 ± 5.72%
% of Gastric Remains ([12]; male DIO mice, 50 μg/kg): 70.86 ± 7.41%
Gross Weight of Stomach ([12]; male DIO mice, 50 μg/kg): 0.55 ± 0.02 g
Propelling Distance of Carbon Powder ([12]; male DIO mice, 50 μg/kg): 10.00 ± 1.04 cm
